Reference: publication doi:10.1101/2023.06.17.545066v1 (biorxiv, 2023)

T1: EcL-TTD (L-tartrate dehydratase, L-TTDα + L-TTDβ) (Escherichia coli, UniProt P05847+P0AC35)
T1 sequence (P05847 1-303): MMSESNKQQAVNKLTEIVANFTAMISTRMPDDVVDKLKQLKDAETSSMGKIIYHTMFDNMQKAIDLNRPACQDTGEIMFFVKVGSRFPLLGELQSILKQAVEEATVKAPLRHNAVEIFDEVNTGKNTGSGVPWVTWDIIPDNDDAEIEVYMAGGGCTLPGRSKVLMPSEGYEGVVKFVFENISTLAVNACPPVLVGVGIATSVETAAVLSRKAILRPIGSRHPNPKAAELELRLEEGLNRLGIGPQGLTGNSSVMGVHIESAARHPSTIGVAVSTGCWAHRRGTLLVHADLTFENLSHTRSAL
T1 sequence (P0AC35 1-201): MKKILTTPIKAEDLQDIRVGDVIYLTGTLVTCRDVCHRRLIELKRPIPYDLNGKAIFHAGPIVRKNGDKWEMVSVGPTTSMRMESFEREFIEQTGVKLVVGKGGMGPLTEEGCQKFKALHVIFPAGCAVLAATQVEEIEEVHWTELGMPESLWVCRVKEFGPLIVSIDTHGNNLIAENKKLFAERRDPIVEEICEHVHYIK

T2: MjFH (class-I fumarate hydratase, α + β subunits) (Methanocaldococcus jannaschii, UniProt Q58034+Q58690)
T2 sequence (Q58690 1-285): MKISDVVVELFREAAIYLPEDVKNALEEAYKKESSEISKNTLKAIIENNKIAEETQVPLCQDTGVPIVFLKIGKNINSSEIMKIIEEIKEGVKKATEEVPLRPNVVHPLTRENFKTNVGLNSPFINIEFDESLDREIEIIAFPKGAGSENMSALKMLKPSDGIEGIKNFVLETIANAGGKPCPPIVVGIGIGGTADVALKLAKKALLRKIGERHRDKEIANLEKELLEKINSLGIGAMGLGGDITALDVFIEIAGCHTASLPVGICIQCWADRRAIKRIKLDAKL
T2 sequence (Q58034 1-195): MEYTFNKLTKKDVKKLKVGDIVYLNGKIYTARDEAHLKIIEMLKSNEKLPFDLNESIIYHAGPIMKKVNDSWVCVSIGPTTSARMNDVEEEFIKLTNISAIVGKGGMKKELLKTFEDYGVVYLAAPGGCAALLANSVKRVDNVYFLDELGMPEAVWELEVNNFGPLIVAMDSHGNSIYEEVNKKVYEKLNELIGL

B1: EcL-TTD (L-tartrate dehydratase, L-TTDα + L-TTDβ) (Escherichia coli K-12) (protein)
chain 1: T1 sequence (P05847 1-303)
chain 2: T1 sequence (P0AC35 1-201)

Experiments:
[1] = biological target: T1, EcL-TTD (L-tartrate dehydratase, L-TTDα + L-TTDβ); experiment: coupled malate dehydrogenase/NADH assay at […] nm, inhibition kinetics; type: biochemical
[2] = biological target: T2, MjFH (class-I fumarate hydratase, α + β subunits); experiment: fumarate formation at […] nm, inhibition kinetics; type: biochemical
purified protein = substrate: O=C(O)C(O)C(O)C(=O)O; experiment: purified protein; type: biochemical, Escherichia coli; details: 50 mM Tris-HCl pH 7.4, 37 °C, 250 μM NADH, Fe-S reconstituted

| Molecule | Ki [1] [µM] | Ki [2] [µM] | Km (purified protein) [µM] |
| --- | --- | --- | --- |
| O=C(O)C[C@H](O)C(=O)O [S-malate] | 261 ± 29 |  |  |
| O=C(O)C(O)C(O)C(=O)O (stereo not drawn) [meso-tartrate] | 149 ± 14 | 161 ± 17 |  |
| B1 |  |  | 190 ± 30 |
